Assay results published in paper PMC12396409, “Screening and hit evaluation of a microbial metabolite library against the pathogenic Plasmodium falciparum and Toxoplasma gondii parasites” (International Journal for Parasitology: Drugs and Drug …, 2025).
Read-outs that look alike come from different tables or passages of the source. Where a SMILES comes first, the peptide text is derived from it. Bridges are numbered along the chain shown (N, C = ends). The star is where a group is joined. X2 = CCCCCCCCCCCC(O)CC(=O)*

Columns and labels:
[1] = system: P. falciparum 3D7 parasites; assay: P. falciparum growth inhibition assay, 1-cycle (72 h treatment), SYBR DNA staining (library screen at 2 μg/mL and dose-response); format: cell-based, Plasmodium falciparum; conditions: for activity at 2 µg/mL: Plasmodium falciparum, 3D7, 72 h
[2] = system: P. falciparum 3D7 parasites; assay: P. falciparum growth inhibition assay, 2-cycle (120 h treatment), delayed-death screen and dose-response; format: cell-based, Plasmodium falciparum; conditions: for activity at 2 µg/mL: Plasmodium falciparum, 3D7, 120 h
[3] = system: T. gondii RH strain (RH-Tub-eYFP) tachyzoites; assay: microbe, parasite or virus in culture; format: cell-based, Toxoplasma gondii; conditions: 72 h, 72 h; for percent parasite growth at 2 µg/mL: Toxoplasma gondii
[4] = P. falciparum 3D7, 72 h, parasite screen at 2 μg/mL, % growth, replicate 1
[5] = P. falciparum 3D7, 72 h, parasite screen at 2 μg/mL, % growth, replicate 2
[6] = P. falciparum 3D7, 120 h, parasite screen at 2 μg/mL, % growth, replicate 1
[7] = P. falciparum 3D7, 120 h, parasite screen at 2 μg/mL, % growth, replicate 2
[8] = T. gondii, parasite screen at 2 μg/mL, % growth, replicate 1
[9] = T. gondii, parasite screen at 2 μg/mL, % growth, replicate 2
[10] = P. falciparum, 72 h, screen at 2 μg/mL, replicate 1
[11] = P. falciparum, 72 h, screen at 2 μg/mL, replicate 2
[12] = P. falciparum, 120 h, screen at 2 μg/mL, replicate 1
[13] = P. falciparum, 120 h, screen at 2 μg/mL, replicate 2
[14] = T. gondii, screen at 2 μg/mL, replicate 1
[15] = T. gondii, screen at 2 μg/mL, replicate 2
[16] = library screen at 2 μg/mL, 72 h, % growth, replicate 1
[17] = library screen at 2 μg/mL, 72 h, % growth, replicate 2
[18] = library screen at 2 μg/mL, 120 h, % growth, replicate 1
[19] = library screen at 2 μg/mL, 120 h, % growth, replicate 2
[20] = library screen at 2 μg/mL, % growth, replicate 1
[21] = library screen at 2 μg/mL, % growth, replicate 2

**Q.** C=CC[C@@H]1/C=C(\C)C[C@H](C)C[C@H](OC)[C@H]2O[C@@](O)(C(=O)C(=O)N3CCCC[C@H]3C(=O)O[C@H](/C(C)=C/[C@@H]3CC[C@@H](O)[C@H](OC)C3)[C@H](C)[C@@H](O)CC1=O)[C@H](C)C[C@@H]2OC [Tacrolimus] was tested. Which activity at 2 µg/mL ([1]; P. falciparum, 72 h, parasite screen 2 μg/mL, % growth, replicate 1, read-out: Pf_72h_%Growth_Rep1) did it give?
**A.** 56.9%

**Q.** And the activity at 2 µg/mL ([1]; P. falciparum, 72 h, parasite screen 2 μg/mL, % growth, replicate 2, read-out: Pf_72h_%Growth_Rep2)?
**A.** 41.7%

**Q.** And the activity at 2 µg/mL ([2]; P. falciparum, 120 h, parasite screen 2 μg/mL, % growth, replicate 1, read-out: Pf_120h_%Growth_Rep1)?
**A.** 49.7%

**Q.** What about the activity at 2 µg/mL ([2]; P. falciparum, 120 h, parasite screen 2 μg/mL, % growth, replicate 2, read-out: Pf_120h_%Growth_Rep2) of the same compound?
**A.** 41%

**Q.** What about the percent parasite growth at 2 µg/mL ([3]; T. gondii, parasite screen 2 μg/mL, % growth, replicate 1, read-out: Tg_72h_%Growth_Rep1) of the same compound?
**A.** 102%

**Q.** And the percent parasite growth at 2 µg/mL ([3]; T. gondii, parasite screen 2 μg/mL, % growth, replicate 2, read-out: Tg_72h_%Growth_Rep2)?
**A.** 79.4%

**Q.** Which Pf_72h_%Growth_Rep1 [1, 4] does the source give for CC(=O)c1c(O)cc(O)cc1O [BIA-M1378] here?
**A.** 82.52%

**Q.** And the Pf_72h_%Growth_Rep2 [1, 5]?
**A.** 84.34%

**Q.** What about the Pf_120h_%Growth_Rep1 [2, 6] of the same compound?
**A.** 82.35%

**Q.** And the Pf_120h_%Growth_Rep2 [2, 7]?
**A.** 134.53%

**Q.** And the Tg_72h_%Growth_Rep1 [3, 8]?
**A.** 125.07%

**Q.** And the Tg_72h_%Growth_Rep2 [3, 9]?
**A.** 89.41%

**Q.** Which Pf_72h_%Growth_Rep1 [1, 4] does the source give for CC=C(C)C(O)C(C)C=C(C)C=CCC(C)=CCc1nc(OC)c(OC)c(O)c1C (stereo not drawn) [BIA-P1069] here?
**A.** 80.36%

**Q.** What about the Pf_72h_%Growth_Rep2 [1, 5] of the same compound?
**A.** 61.30%

**Q.** And the Pf_120h_%Growth_Rep1 [2, 6]?
**A.** 92.39%

**Q.** And the Pf_120h_%Growth_Rep2 [2, 7]?
**A.** 102.66%

**Q.** And the Tg_72h_%Growth_Rep1 [3, 8]?
**A.** 120.41%

**Q.** What about the Tg_72h_%Growth_Rep2 [3, 9] of the same compound?
**A.** 75.10%

**Q.** Which activity at 2 µg/mL ([1]; P. falciparum, 72 h, screen at 2 μg/mL, replicate 1, read-out: Pf_72h_%Growth_Rep1) does the source give for CC1=C2C(=CO[C@H](C)[C@H]2C)C(O)=C(C(=O)O)C1=O [Citrinin] here?
**A.** 89.1%

**Q.** And the activity at 2 µg/mL ([1]; P. falciparum, 72 h, screen at 2 μg/mL, replicate 2, read-out: Pf_72h_%Growth_Rep2)?
**A.** 84%

**Q.** What about the activity at 2 µg/mL ([2]; P. falciparum, 120 h, screen at 2 μg/mL, replicate 1, read-out: Pf_120h_%Growth_Rep1) of the same compound?
**A.** 138%

**Q.** What about the activity at 2 µg/mL ([2]; P. falciparum, 120 h, screen at 2 μg/mL, replicate 2, read-out: Pf_120h_%Growth_Rep2) of the same compound?
**A.** 82.5%

**Q.** And the percent parasite growth at 2 µg/mL ([3]; T. gondii, screen at 2 μg/mL, replicate 1, read-out: Tg_72h_%Growth_Rep1)?
**A.** 87.8%

**Q.** What about the percent parasite growth at 2 µg/mL ([3]; T. gondii, screen at 2 μg/mL, replicate 2, read-out: Tg_72h_%Growth_Rep2) of the same compound?
**A.** 82%

**Q.** For COc1ccc2c3c([nH]c2c1)C(C)(C)C=CN1C(=O)[C@H](C)NC(=O)/C1=C/3 [Cycloechinulin], which Pf_72h_%Growth_Rep1 [1, 10] is on record?
**A.** 63.19%

**Q.** And the Pf_72h_%Growth_Rep2 [1, 11]?
**A.** 64.05%

**Q.** And the Pf_120h_%Growth_Rep1 [2, 12]?
**A.** 51.02%

**Q.** What about the Pf_120h_%Growth_Rep2 [2, 13] of the same compound?
**A.** 53.71%

**Q.** What about the Tg_72h_%Growth_Rep1 [3, 14] of the same compound?
**A.** 136.66%

**Q.** And the Tg_72h_%Growth_Rep2 [3, 15]?
**A.** 103.07%

**Q.** CN(C)[C@H]1C(O)=C(C(N)=O)C(=O)[C@@]2(O)C(O)=C3C(=O)c4c(O)cccc4[C@@](C)(O)[C@H]3[C@H](O)[C@@H]12 [Epioxytetracycline] was tested. Which Pf_72h_%Growth_Rep1 [1, 16] did it give?
**A.** 86.72%

**Q.** And the Pf_72h_%Growth_Rep2 [1, 17]?
**A.** 78.69%

**Q.** What about the Pf_120h_%Growth_Rep1 [2, 18] of the same compound?
**A.** 99.19%

**Q.** And the Pf_120h_%Growth_Rep2 [2, 19]?
**A.** 96.08%

**Q.** What about the Tg_72h_%Growth_Rep1 [3, 20] of the same compound?
**A.** 152.95%

**Q.** And the Tg_72h_%Growth_Rep2 [3, 21]?
**A.** 107.04%

**Q.** With CCC(=O)N[C@H](COC(C)=O)[C@H](O)c1ccc([N+](=O)[O-])cc1 [Corynecin V] as the compound, how does the Pf_72h_%Growth_Rep1 [1, 10] read?
**A.** 87.31%

**Q.** And the Pf_72h_%Growth_Rep2 [1, 11]?
**A.** 90.66%

**Q.** What about the Pf_120h_%Growth_Rep1 [2, 12] of the same compound?
**A.** 81.24%

**Q.** And the Pf_120h_%Growth_Rep2 [2, 13]?
**A.** 97.66%

**Q.** And the Tg_72h_%Growth_Rep1 [3, 14]?
**A.** 157.61%

**Q.** What about the Tg_72h_%Growth_Rep2 [3, 15] of the same compound?
**A.** 102.11%

**Q.** For CCCCCCCCCCCC(O)CC(=O)NC(CC(C)C)C(=O)NC(CCC(=O)O)C(=O)NC1C(=O)NC(C(C)CC)C(=O)NC(CC(C)C)C(=O)NC(CO)C(=O)NC(CC(C)C)C(=O)NC(CC(C)C)C(=O)NC(CO)C(=O)NC(C(C)C)C(=O)OC1C (stereo not drawn) [BIA-O1430] (X2-LETILSLLSV; ester 3-C; configuration not given here), which Pf_72h_%Growth_Rep1 [1, 4] is on record?
**A.** 78.47%

**Q.** And the Pf_72h_%Growth_Rep2 [1, 5]?
**A.** 76.87%

**Q.** And the Pf_120h_%Growth_Rep1 [2, 6]?
**A.** 85.46%

**Q.** And the Pf_120h_%Growth_Rep2 [2, 7]?
**A.** 72.71%

**Q.** What about the Tg_72h_%Growth_Rep1 [3, 8] of the same compound?
**A.** 121.77%

**Q.** What about the Tg_72h_%Growth_Rep2 [3, 9] of the same compound?
**A.** 92.49%

**Q.** For CC1(C)CCCC2(C)c3cnncc3CCC12 (stereo not drawn) [Polygodial pyridazine], which Pf_72h_%Growth_Rep1 ([1]; P. falciparum, 72 h, parasite screen 2 μg/mL, % growth, replicate 1) is on record?
**A.** 71.42%

**Q.** What about the Pf_72h_%Growth_Rep2 ([1]; P. falciparum, 72 h, parasite screen 2 μg/mL, % growth, replicate 2) of the same compound?
**A.** 85.26%

**Q.** And the Pf_120h_%Growth_Rep1 ([2]; P. falciparum, 120 h, parasite screen 2 μg/mL, % growth, replicate 1)?
**A.** 58.21%

**Q.** What about the Pf_120h_%Growth_Rep2 ([2]; P. falciparum, 120 h, parasite screen 2 μg/mL, % growth, replicate 2) of the same compound?
**A.** 140.85%

**Q.** What about the Tg_72h_%Growth_Rep1 ([3]; T. gondii, parasite screen 2 μg/mL, % growth, replicate 1) of the same compound?
**A.** 119.26%

**Q.** What about the Tg_72h_%Growth_Rep2 ([3]; T. gondii, parasite screen 2 μg/mL, % growth, replicate 2) of the same compound?
**A.** 96.17%

**Q.** Which Pf_72h_%Growth_Rep1 [1, 16] does the source give for COc1c(O)c2c(=O)cc3c4c5c(cc(=O)c6c(O)c(OC)c(C[C@H](C)OC(C)=O)c(c(c1C[C@H](C)OC(C)=O)c24)c65)OCO3 [Diacetylcercosporin] here?
**A.** 2.60%

**Q.** What about the Pf_72h_%Growth_Rep2 [1, 17] of the same compound?
**A.** 15.99%

**Q.** What about the Pf_120h_%Growth_Rep1 [2, 18] of the same compound?
**A.** -5.54%

**Q.** What about the Pf_120h_%Growth_Rep2 [2, 19] of the same compound?
**A.** 6.35%

**Q.** And the Tg_72h_%Growth_Rep1 [3, 20]?
**A.** 4.49%

**Q.** What about the Tg_72h_%Growth_Rep2 [3, 21] of the same compound?
**A.** 14.87%
